The assay concerns excised Arabidopsis nodes. Kind of assay: Axillary bud outgrowth assay in Arabidopsis stem sections. It counts as in vivo. The conditions noted are these: 100 μM inhibitor, 1 μM NAA; Col-0; FIG. 5. As to the method:
Axillary bud outgrowth assay in Arabidopsis stein sections—The assays were performed essentially as described (40) with the following modifications. Small Petri dishes (50 mm diameter, 20 mm depth) were filled with 10 ml of ATS (39) supplemented with 1% agar and 1% sucrose. Inhibitors and α-naphthalene acetic acid (NAA) were added to the agar before pouring to give 100 μM and 1 μM, respectively. Thus, when the central strip was cut out of the agar, both the apical and basal media contained both NAA and inhibitor. Any nodes in which the apical end had curled out of the media or which bud length was less than 2 mm at the end of the experiment were discounted. Measurement of the shoot length was performed every 24 hours. For each assay a logistic curve was fitted using Genstat (10th edition, VSN international) with the fitcurve directive and the lag phase was calculated by extrapolating the linear part of the curve and the initial plateau (see supplementary methods). The x value of where these two lines intersected represented the lag phase.
A logistic curve, y=A+C/(1+e^−B(t−m)), was fitted to the data for each shoot using GenStat (10th edition). The lag phase was then calculated using the equation m−(2/B) which effectively gave the t value (time) of the intercept of the two extrapolated lines from the linear part of the curve and the initial plateau.
Stimulation of shoot branching in Arabidopsis stem sections by application of inhibitor—Auxin inhibits the outgrowth of axillary buds in wild-type Arabidopsis plants. In the AtCCD7 and AtCCD8 null mutants (max3 and max4, respectively) the response to auxin is reduced, presumably due to a block in formation of an apocarotenoid hormone (recently shown (17,18) to be strigolactone or a related compound) that suppresses branching (19), and axillary buds extend earlier, leading to formation of side branches. An in vitro assay was previously developed in which the growth of axillary buds from isolated sections of Arabidopsis stem was used to assess max mutants (40). […]

Structures are written as SMILES.

For the molecule `COc1ccc(C(=O)N(O)Cc2ccccc2)cc1` [Compound F1, N-benzyl-4-methoxybenzoyl hydroxamic acid], the “effect on timing of bud outgrowth (in words)” value is listed as “relatively small activity”.
The result for `COc1ccc(C(=O)N(O)Cc2ccc(F)cc2)cc1` [Compound F2, N-(4-fluorobenzyl)-4-methoxybenzoyl hydroxamic acid] reads “relatively small activity”.

These data come from patent US9210928B2, “Plant development control composition” (Syngenta Crop Protection, LLC, priority 2008, dated 2015).
